Test results published in patent US7723467B2, “Antimicrobial compounds” (New England Medical Center Hospitals, Inc., priority 2000, dated 2010).
Where two headings read alike, the source gives them in different places. Non-standard residues stand in square brackets, D forms with d. No end group written: not given here.

Key:
Assay type in all cases: cell-based
[1] = test system: Candida albicans NCTC 10231
Experimental: Anti-fungal activity is similarly assayed, using log phase vegetative fungal cells.
(§1) Antifungal activity was assayed using Candida albicans NCTC 10231 as a target fungus. Candida cells in the logarithmic phase of growth were suspended in dextrose broth medium at a density of 10^5 CFU/ml. A mixture of the sample solution (100 μl) and the fungal suspension (100 μl) was incubated for 24 h at 37° C.

[2] = test system: Enterococcus faecalis ATCC 19212
Experimental: (§2) The assays are standardized by using a predictable predetermined number of cells, and the lowest observed concentration of the agent that inhibits growth is defined as the minimum inhibitory concentration (MIC).
(§3) Antimicrobial activity, specifically antibacterial activity, was assayed using cells of each of Staphylococcus aureus NCTC 4163, Escherichia coli NCTC 8196, Pseudomonas aeruginosa NCTC 6749, Proteus vulgaris NCTC 4635, and Enterococcus faecalis ATCC 19212. To determine the minimum inhibitory concentration (MIC), the microdilution broth method, well-known to one of ordinary skill in the art of microbiology, was used. Cells of each bacterial strain were collected in the logarithmic phase of growth, and resuspended in nutrient broth. The concentration of colony-forming units (CFU) per milliliter was quantified by measuring absorption of light at 600 nm (A600).
(§4) Peptide samples were dissolved in nutrient broth (pH 7.0) and diluted serially. The sample solution (100 μl) was mixed with the diluted bacterial suspension (100 μl). Mixtures containing 105 bacterial CFU, and from 1% to 0.003% of test peptides, were incubated for 24 h at 37° C. […] The indolicidin antibacterial property with cells of S. aureus was used as a positive control reference.

microorganisms tested = test: Antimicrobial activity across the microorganisms tested; details: compared with SP
Experimental: as §3, §4, §1

[3] = test system: Proteus vulgaris NCTC 4635
Experimental: as §2, §3, §4

[4] = test system: Staphylococcus aureus NCTC 4163
Experimental: as §2, §3, §4

[5] = test system: Pseudomonas aeruginosa NCTC 6749
Experimental: as §2, §3, §4

[6] = test system: Escherichia coli NCTC 8196
Experimental: as §2, §3, §4

microorganism = test: Mixing experiments of SP with SP antagonist
[7] = dextrose broth, 24 h at 37° C., turbidity
[8] = 100% inhibition of growth, 24 h at 37° C., nutrient broth pH 7.0

Substance | potency against C. albicans relative to SP or bradykinin [1] | activity compared with indolicidin ([1]; cells of C. albicans) | Minimal Inhibitory Concentration MIC (%) C. albicans [1, 7] [%] | Minimal Inhibitory Concentration MIC (%) E. faecalis [2, 8] [%] | MIC fold higher (weaker potency) on the other bacteria tested (microorganisms tested) | Minimal Inhibitory Concentration MIC (%) P. vulgaris [3, 8] [%] | Minimal Inhibitory Concentration MIC (%) S. aureus [4, 8] [%] | Minimal Inhibitory Concentration MIC (%) P. aeruginosa [5, 8] [%] | Minimal Inhibitory Concentration MIC (%) E. coli [6, 8] [%] | Minimal Inhibitory Concentration MIC (%) C. albicans ([1]; NCTC 10231, 24 h) [%] | Minimal Inhibitory Concentration MIC (%) E. faecalis ([2]; ATCC 19212, 24 h, pH 7) [%] | Minimal Inhibitory Concentration MIC (%) P. vulgaris ([3]; NCTC 4635, 24 h, pH 7) [%] | Minimal Inhibitory Concentration MIC (%) S. aureus ([4]; NCTC 4163, 24 h, pH 7) [%] | Minimal Inhibitory Concentration MIC (%) P. aeruginosa ([5]; NCTC 6749, 24 h, pH 7) [%] | Minimal Inhibitory Concentration MIC (%) E. coli ([6]; NCTC 8196, 24 h, pH 7) [%] | antifungal properties against C. albicans [1] | blocking of the antimicrobial effect by the presence of SP antagonist (microorganism) | antimicrobial potency compared with indolicidin ([4]; cells of S. aureus)
Arg-D-Pro-Lys-Pro-Gln-Gln-D-Trp-Phe-D-Trp-Leu-MetNH2 (R[dP]KPQQ[dW]F[dW]LM-NH2; N-terminus assumed; SMILES CSCC[C@H](NC(=O)[C@H](CC(C)C)NC(=O)[C@@H](Cc1c[nH]c2ccccc12)NC(=O)[C@H](Cc1ccccc1)NC(=O)[C@@H](Cc1c[nH]c2ccccc12)NC(=O)[C@H](CCC(N)=O)NC(=O)[C@H](CCC(N)=O)NC(=O)[C@@H]1CCCN1C(=O)[C@H](CCCCN)NC(=O)[C@H]1CCCN1C(=O)[C@@H](N)CCCNC(=N)N)C(N)=O; listed as Homo sapiens) [SEQ ID NO: 2] | approximately 10 times | comparable to that of indolicidin | 0.03 | 0.13 | 10- to 20 fold | 0.13 | 0.13 | 0.13 | 0.13 | – | – | – | – | – | – | – | – | –
Ile-Leu-Pro-Trp-Lys-Trp-Pro-Trp-Trp-Pro-Trp-Arg-Arg-NH2 (ILPWKWPWWPWRR-NH2; listed as Homo sapiens) [Indolicidin, reference compound] | – | – | 0.015 | – | – | – | 0.003 | – | 0.007 | – | – | – | – | – | – | – | – | –
RPPGFSPFR [Bradykinin, reference compound] | – | – | – | – | – | – | – | – | – | 0.25 | >1 | 0.5 | 0.5 | 1.0 | 0.5 | – | – | –
Arg-Pro-Lys-Pro-Gln-Gln-Phe-Phe-Gly-Leu-MetNH2 [SEQ ID NO: 1] | – | – | 0.25 | 0.13 | – | 0.13 | 0.007 | 0.13 | 0.06 | – | – | – | – | – | – | found to have antifungal properties | not to be blocked | equally potent to indolicidin
